Laboratory results published in patent US9271916B2, “Composition for reducing skin wrinkles including PDE5 inhibitor” (SK Chemicals Co., Ltd., priority 2011, dated 2016).
Counter-ions that a name gives are not always drawn.

Columns and labels:
[1] = tested on: type I procollagen production in normal human dermal fibroblasts (NHDF, cell line 7F3802); experiment: Procollagen type I production in normal human dermal fibroblasts; assay type: cell-based; conditions: 48 hours, negative control 100.0±0.0%, p<0.01
Procedure: Effects by mirodenafil hydrochloride, test compound, on production of type I collagen was evaluated with normal human dermal fibroblasts.
Cell line 7F3802 was used as a normal human dermal fibroblast (hereinafter, ‘NHDF’). Frozen NHDF was thawed and subcultured, and passages 5 to 7 were used for this test.
L-Ascorbic acid (Sigma-Aldrich Co., U.S.A.) was used as a positive control because there are lots of comparative experimental data using l-ascorbic acid. L-Ascorbic acid has been reported to be effective in acceleration of collagen production when evaluating with fibroblasts. DMSO (Dimethyl sulfoxide) was used as a diluent.
(§1) 0.01 mL of aliquot was taken from 10 mM of mirodenafil hydrochloride stock solution, and 9.99 mL of DMSO was added to the aliquot to make 10,000 nM of sample. This sample was additionally diluted to 1,000 nM of concentration right before being used. 10,000 nM and 1,000 nM of solutions were diluted 100 times with serum-free medium to […], right before being applied.
For making a positive control, 20,000 μM (3.522 mg/mL) of 1-ascorbic acid was prepared by dissolving it with serum-free medium, and then the solution was diluted to 200 μM.
Two cell culture media were used in this experiment. Complete medium consisting of FBS (fetal bovine serum), Penicillin-Streptomycin (10,000 U/mL of penicillin and 10,000 ug of streptomycin) and DMEM/F12 (dulbecco's modified eagle's medium/F12) was used during subculture before test compound was applied, and then serum-free medium consisting of Penicillin-Streptomycin and DMEM (dulbecco's modified eagle's medium) was used.
Pre-treatment (cell culture and treatment of test compound) was performed as follows: After culturing in complete medium, 400 μl of NHDF was seeded into 48-well plates (1×10^5 cells/400 μl/well), and cultured at a condition of 37° C. and 5% CO2 incubator (MCO-20AIC, Sanyo, Japan) for 24 hours. After culture was completed, the remaining media were removed from each well. 500 μl of D-PBS (D-phosphate buffered saline) was added to each well to wash wells. […]

[2] = tested on: UVB-induced skin wrinkles; experiment: Wrinkle reduction in UVB-irradiated hairless mice; assay type: in vivo; conditions: for Wrinkle reduction (skin photographs): 10 mM (about 5%), applied twice daily for 14 days after wrinkle induction
Procedure: An examination was made as to whether the PDE5 inhibitors can substantially reduce skin wrinkles of animal models. Hairless mice, aged 7 weeks, were irradiated with UVB (290-320 nm, 312 nm) to induce wrinkles. The compound or the control was applied to each mouse and its influence on the induced wrinkles was evaluated. More specifically, the mice were irradiated with 60 mJ/cm^2 (1 minimal […] dose (MED)) for 3 days weekly during the first and second week after wrinkling, 120 mJ/cm^2 (2 MED) for 3 days during the third week after wrinkling, 180 mJ/cm^2 (3 MED) for 3 days during the fourth week after wrinkling, 240 mJ/cm^2 (4 MED) for 3 days weekly during the fifth to eighth week after wrinkling, and 240 mJ/cm^2 (4 MED) for 5 days weekly during the ninth to fifteenth week after wrinkling. During the sixteenth and seventeenth week after wrinkling, about 0.5 ml of squalene-OOH, an oxidation product of squalene by UV irradiation, was applied once using a brush to induce deeper wrinkles. Thereafter, the compound or the control was applied to each mouse twice daily for 14 days.

[3] = tested on: matrix metalloproteinase-1 (MMP-1) expression in normal human dermal fibroblasts; experiment: Inhibition of MMP-1 expression in normal human dermal fibroblasts; assay type: cell-based; conditions: NHDF, negative control 189.7±10.9%, p<0.01
Procedure: Effects by mirodenafil hydrochloride, test compound, on inhibition of matrix metalloproteinase-1 (MMP-1) expression was evaluated with normal human dermal fibroblasts.
(−)Epigallocatechin gallate (EGCG) (Sigma-Aldrich Co., U.S.A.) was used as a positive control because there are lots of comparative experimental data using the EGCG. EGCG has been reported to be effective in inhibition of MMP-1 expression when evaluating with fibroblasts. DMSO (Dimethyl sulfoxide) was used as a diluent.
as §1
For making a positive control, 10,000 μM (4.584 mg/mL) of EGCG was prepared by dissolving it with serum-free medium, and then the solution was diluted to 10 μM (0.0046 mg/mL).
BCA protein assay kit (Lot No.: KK140637, Pierce Biotechnology Inc., USA) was used for total protein analysis, and matrix metalloproteinase-1 (MMP-1), human, biotrak ELISA system kit (Lot No.: 398061, GE Healthcare, UK) was used for MMP-1 analysis.
The contents of MMP-1 in wells to which negative control, test compound or positive control was added were divided by the content of total protein. The adjusted content of MMP-1 was used to calculate “Inhibition rate of MMP-1 expression” with the following equation. This test was repeated three times. Inhibition rate of MMP-1 expression (%)=A/B×100
A: MMP-1 amount of sample or positive control
B: MMP-1 amount of negative control
The other materials and methods which were not mentioned in detail were similar to those of Example 3.

## O=C1O[C@H]([C@@H](O)CO)C(O)=C1O [L-Ascorbic acid]
[1]; 35.2 μg/mL (200 μM)
  Synthesis rate of procollagen type I: 175.7±11.5%

## CC1=C(/C=C/C(C)=C/C=C/C(C)=C/C(=O)O)C(C)(C)CCC1 [retinoic acid]
[2]; 0.05%, topical, twice then once daily
  Formation and peeling of cornified layers of the skin: Cornified layers were formed and continuously peeled

## (−)Epigallocatechin gallate [EGCG]
[3]; 0.0046 mg/mL (10 μM)
  MMP-1 expression (% of control): 102.3±18.7%

## CCCOc1ccc(S(=O)(=O)N2CCN(CCO)CC2)cc1-c1nc2c(CCC)cn(CC)c2c(=O)[nH]1.Cl.Cl [mirodenafil 2HCl]
[2]
  Wrinkle reduction (skin photographs): Wrinkle reduction was observed

## CCCOc1ccc(S(=O)(=O)N2CCN(CCO)CC2)cc1-c1nc2c(CCC)cn(CC)c2c(=O)[nH]1 [mirodenafil free base, mirodenafil]
[2]
  Wrinkle reduction (skin photographs): Wrinkle reduction was observed

## CCCOc1ccc(S(=O)(=O)N2CCN(CCO)CC2)cc1-c1nc2c(CCC)cn(CC)c2c(=O)[nH]1 [mirodenafil hydrochloride]
[1]; 10 nM
  Synthesis rate of procollagen type I: 149.7±12.4%
[1]; 100 nM
  Synthesis rate of procollagen type I: 189.8±6.4%
[3]; 10 nM
  MMP-1 expression (% of control): 115.8±9.1%
[3]; 100 nM
  MMP-1 expression (% of control): 97.9±8.5%
